Biological target: Multidrug resistance-associated protein 1 (Homo sapiens, UniProt P33527)
Experiment: TP_TRANSPORTER: intracellular accumulation in KB-3-1 and MRP1-expressing KB-3-1 cells
Type: functional, cell-based, KB-3-1; KB/MRP
Conditions: kb/mrp

Sequence of Multidrug resistance-associated protein 1 (P33527 whole entry): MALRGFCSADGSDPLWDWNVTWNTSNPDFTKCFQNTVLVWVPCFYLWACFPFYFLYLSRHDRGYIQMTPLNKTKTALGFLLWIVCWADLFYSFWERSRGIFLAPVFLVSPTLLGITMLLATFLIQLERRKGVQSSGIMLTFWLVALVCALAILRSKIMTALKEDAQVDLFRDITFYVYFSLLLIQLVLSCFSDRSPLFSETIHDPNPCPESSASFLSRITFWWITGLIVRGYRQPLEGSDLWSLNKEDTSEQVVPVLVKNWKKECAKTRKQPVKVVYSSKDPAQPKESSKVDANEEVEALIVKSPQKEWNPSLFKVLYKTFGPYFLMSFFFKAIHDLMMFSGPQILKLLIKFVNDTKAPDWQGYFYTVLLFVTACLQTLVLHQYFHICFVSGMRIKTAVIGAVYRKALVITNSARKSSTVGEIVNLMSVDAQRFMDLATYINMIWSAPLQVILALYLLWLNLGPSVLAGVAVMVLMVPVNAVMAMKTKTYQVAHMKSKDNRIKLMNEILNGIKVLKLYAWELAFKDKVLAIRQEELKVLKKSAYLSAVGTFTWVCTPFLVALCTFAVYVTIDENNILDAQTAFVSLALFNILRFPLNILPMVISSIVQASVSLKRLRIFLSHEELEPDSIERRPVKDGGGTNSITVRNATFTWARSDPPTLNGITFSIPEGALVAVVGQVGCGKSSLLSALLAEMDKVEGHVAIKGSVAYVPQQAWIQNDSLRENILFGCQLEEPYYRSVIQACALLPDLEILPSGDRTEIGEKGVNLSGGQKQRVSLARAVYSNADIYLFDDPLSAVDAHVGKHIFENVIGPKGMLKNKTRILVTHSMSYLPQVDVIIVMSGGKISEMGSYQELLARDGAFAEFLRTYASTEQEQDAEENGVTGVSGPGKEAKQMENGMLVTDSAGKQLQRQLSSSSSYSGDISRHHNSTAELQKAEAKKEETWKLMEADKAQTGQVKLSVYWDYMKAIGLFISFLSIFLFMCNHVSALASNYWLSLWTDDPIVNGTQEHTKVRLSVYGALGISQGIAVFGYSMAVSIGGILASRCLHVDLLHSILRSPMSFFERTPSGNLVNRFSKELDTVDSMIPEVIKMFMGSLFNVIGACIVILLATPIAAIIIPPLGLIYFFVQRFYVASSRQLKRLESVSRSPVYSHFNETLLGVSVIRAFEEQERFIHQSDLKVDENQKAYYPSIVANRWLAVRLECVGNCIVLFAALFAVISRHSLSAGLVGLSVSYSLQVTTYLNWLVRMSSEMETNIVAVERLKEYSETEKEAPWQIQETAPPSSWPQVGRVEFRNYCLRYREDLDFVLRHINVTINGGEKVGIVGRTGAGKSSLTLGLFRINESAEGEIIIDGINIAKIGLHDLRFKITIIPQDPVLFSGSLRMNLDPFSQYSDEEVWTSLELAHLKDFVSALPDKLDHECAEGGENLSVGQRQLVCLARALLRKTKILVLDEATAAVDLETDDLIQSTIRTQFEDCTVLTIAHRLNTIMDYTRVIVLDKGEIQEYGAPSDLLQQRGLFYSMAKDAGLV

Activity	Structure (SMILES)
substrate [+]	CCc1c2c(nc3ccc(O)cc13)-c1cc3c(c(=O)n1C2)COC(=O)[C@]3(O)CC [7-ETHYL-10-HYDROXYCAMPTOTHECIN]
substrate [+]	CCc1c2c(nc3ccc(OC(=O)N4CCC(N5CCCCC5)CC4)cc13)-c1cc3c(c(=O)n1C2)COC(=O)[C@]3(O)CC [IRINOTECAN]

Source: ChEMBL document CHEMBL2074109, “ATP-Dependent efflux of CPT-11 and SN-38 by the multidrug resistance protein (MRP) and its inhibition by PAK-104P” (Mol Pharmacol, 1999)
